How the values were obtained:
human TRPV1 [1] = molecular target: T1, human TRPV1 (Homo sapiens (Human), UniProt Q8NER1); experiment: Capsaicin Activation Assay (intracellular Ca2+, FLIPR); format: cell-based; details: recombinant HEK293 cells expressing hTRPV1, 50 nM capsaicin
Summary of the method: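 Stably transfected HEK293 cells expressing human TRPV1 cDNA, plated the day before in poly-D-lysine plates. Compounds serially diluted from 10 mM DMSO stocks; intracellular Ca2+ fluorescence read on FLIPR at 1 to 5 second intervals.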

human TRPV1 [2] = molecular target: T1, human TRPV1; experiment: Acid Activation Assay (pH 5.0, intracellular Ca2+, FLIPR); format: cell-based; details: percentage of the maximal pH 5.0-induced response remaining; recombinant HEK293 hTRPV1 cells; maximum concentration tested 37.5 μM
Summary of the method: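 HEK293 cells stably expressing recombinant hTRPV1, loaded with Calcium-4 dye 90-120 min at 25° C. Compounds added over a 12-point half-log range (top 37.5 μM), then pH 5.0 DPBS/MES challenge after 3 min; FLIPR peak fluorescence over baseline given as % of maximal pH 5.0 response.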

rats [3] = experiment: Rat acute capsaicin-induced flinching behavior; format: in vivo; details: 1 h, oral dose given as 100 nmol/kg, capsaicin 2.5 μg into hind paw one hour after compound, five minute observation, relative to control-treated animals, read-out: % effect (percent reduction in the number of flinching behaviors)
Procedure: Rats were placed in individual observation cages. Following an acclimation period of 30 minutes, selected compounds were administered orally at a dose of 100 nmol/kg in a vehicle (10% ethanol/20% Tween 80/70% polyethylene glycol-400) at a volume of 2 mL/kg. One hour after administration of the compound, 2.5 μg of capsaicin in a 10 μL solution of 10% ethanol/90% hydroxypropyl-β-cyclodextrin was injected subcutaneously into the dorsal aspect of the right hind paw. The observation cage was then suspended above mirrors in order to facilitate observation. […] The number of flinching behaviors of the injured paw was recorded during the five minute observation period (Gilchrist, H. D.; Allard, B. L.; Simone, D. A.; Enhanced withdrawal responses to heat and mechanical stimuli following intraplantar injection of capsaicin in rats. Pain, 1996, 67, 179-188). The percent reduction in the number of flinching behaviors produced from oral administration of the test compounds relative to control-treated animals (% effect) is reported in Table 2.

rats [4] = experiment: Sodium iodoacetate-induced knee joint osteoarthritic pain model (hind limb grip force); format: in vivo; details: rat, po, single acute dose, 1 hour after administration, 20 days after sodium iodoacetate, read-out: % effect (% return to normalcy of hind limb grip force)
Procedure: Unilateral knee joint osteoarthritis was induced in the rats by a single intra-articular (i.a.) injection of sodium iodoacetate (3 mg in 0.05 mL sterile isotonic saline) into the right knee joint cavity under light isoflurane anesthesia using a 26 G needle. […] Pain behavioral assessment of hind limb grip force was conducted by recording the maximum compressive force exerted on the hind limb strain gauge setup, in a commercially available grip force measurement system (Columbus Instruments, Columbus, Ohio). The grip force data was converted to a maximum hindlimb cumulative compressive force (CFmax) (gram force)/kg body weight for each animal. The analgesic effects of test compounds were determined 20 days following the i.a. injection of sodium iodoacetate. The vehicle control group for each compound being tested was assigned 0% whereas the age matched naïve group was assigned as being 100% (normal). The % effect for each dose group was then expressed as % return to normalcy compared to the naïve group. Test compounds were administered orally in 10% ethanol/20% Tween 80/70% polyethylene glycol-400 vehicle at a volume of 2 mL/kg. The assessment of the analgesic effects of test compounds was made 1 hour following oral administration. The assessment of the analgesic effects of test compounds can be made following a single dose or following repeated administration wherein the frequency of dosing is 1 to 2 times daily. The duration of such repeated daily dosing may last for any time greater than one day. A typical duration of repeated daily dosing is about 5 days to about 12 days.

rats [5] = experiment: Rat tail immersion assay of noxious thermosensation; format: in vivo; details: morphine 6 mg/kg i.p. in saline, 55° C. water bath, relative to vehicle control
Procedure: Compounds were tested for their effects on noxious thermosensation using the tail immersion assay. Testing was performed one hour following oral administration of 100 μmol/kg of the compound in 10% ethanol/20% Tween-80/70% PEG-400 (2 mL/kg). Mophine (6 mg/kg) was administered interperitoneally (i.p.) using saline (2 mL/kg) as the vehicle. For testing, a circulating water bath was heated to 55° C. Thirty to sixty minutes post dosing, the rats were handled for a few seconds to calm them down and then cupped with their back against the testers hand at a slight angle with head facing away from tester. With rat in one hand and a 0.01 second stopwatch in the other hand, the tail was quickly immersed 6-8 cm in water bath or to a distance leaving 2-3 cm of tail out of water. The timer was started simultaneously. When the rat flinched or attempted withdrawal, timer was immediately stopped and the rat's tail was quickly removed from water bath. This response latency (in seconds) was recorded. Process was repeated 3 times with 3-4 minutes between readings for a final average.
For a given compound, a percent increase in the average response latency (in seconds) for tail withdrawal relative to a vehicle control was determined % increase=[(tc−tv)/tv]×100% […]
Table 1 reports the % increase in tail withdrawal latency measured for the compounds tested. […]

T1 sequence (Q8NER1 whole entry): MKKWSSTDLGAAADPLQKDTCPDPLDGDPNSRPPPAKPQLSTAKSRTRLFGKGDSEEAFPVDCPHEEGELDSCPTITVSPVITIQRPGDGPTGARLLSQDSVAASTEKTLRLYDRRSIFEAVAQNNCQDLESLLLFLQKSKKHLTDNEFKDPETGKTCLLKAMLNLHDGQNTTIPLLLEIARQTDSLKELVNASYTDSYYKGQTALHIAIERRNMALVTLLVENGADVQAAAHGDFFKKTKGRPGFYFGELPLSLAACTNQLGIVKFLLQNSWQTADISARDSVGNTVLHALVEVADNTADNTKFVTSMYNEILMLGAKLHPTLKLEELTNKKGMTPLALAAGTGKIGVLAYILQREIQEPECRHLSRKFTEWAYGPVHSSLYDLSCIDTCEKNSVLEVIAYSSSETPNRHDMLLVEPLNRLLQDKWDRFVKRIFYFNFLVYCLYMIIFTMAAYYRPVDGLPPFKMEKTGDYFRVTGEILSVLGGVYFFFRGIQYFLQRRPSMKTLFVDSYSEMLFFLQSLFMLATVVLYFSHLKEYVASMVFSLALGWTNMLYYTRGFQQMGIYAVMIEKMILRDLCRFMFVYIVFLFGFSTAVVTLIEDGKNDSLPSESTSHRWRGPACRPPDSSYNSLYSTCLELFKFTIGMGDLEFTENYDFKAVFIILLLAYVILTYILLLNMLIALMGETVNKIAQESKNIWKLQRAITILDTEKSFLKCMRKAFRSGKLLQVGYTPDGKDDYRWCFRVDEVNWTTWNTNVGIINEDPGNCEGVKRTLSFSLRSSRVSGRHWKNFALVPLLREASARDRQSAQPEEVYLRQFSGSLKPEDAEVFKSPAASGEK

## CC1(C)C[C@@H](NC(=O)Nc2ccc3c(c2)NC(=O)CC3)c2ccc(F)c(F)c2O1 [Example 33, 1-[(4R)-7,8-difluoro-2,2-dimethyl-3,4-dihydro-2H-chromen-4-yl]-3-(2-oxo-1,2,3,4-tetrahydroquinolin-7-yl)urea]
Human TRPV1 [1]
  IC50: 0.02 µM
Human TRPV1 [2]
  human TRPV1 H^+ (max % remain): 42%
Rats [3]
  inhibition in vivo at 0.1 µmol/kg: 59%
Rats [4]
  inhibition in vivo at 10 mg/kg: 37%

## CN1CC[C@]23c4c5ccc(O)c4O[C@H]2[C@@H](O)C=C[C@H]3[C@H]1C5 [Morphine, morphine]
Rats [5]
  % Increase in tail withdrawal latency: +++ (greater than or equal to 25% increase)

## Cn1c(=O)ccc2c(NC(=O)N[C@@H]3C[C@](C)(C(F)F)Oc4ccccc43)cccc21 [Example 28, 1-[(2R,4R)-2-(difluoromethyl)-2-methyl-3,4-dihydro-2H-chromen-4-yl]-3-(1-methyl-2-oxo-1,2-dihydroquinolin-5-yl)urea]
Human TRPV1 [1]
  IC50: 0.012 µM
Human TRPV1 [2]
  human TRPV1 H^+ (max % remain): 53%
Rats [3]
  inhibition in vivo at 0.1 µmol/kg: 81%

## CN1C(=O)CCc2ccc(NC(=O)N[C@@H]3CCc4cc(C(F)(F)F)ccc43)cc21 [Example 36, 1-(1-methyl-2-oxo-1,2,3,4-tetrahydroquinolin-7-yl)-3-[(1R)-5-(trifluoromethyl)-2,3-dihydro-1H-inden-1-yl]urea]
Human TRPV1 [1]
  IC50: 0.034 µM
Human TRPV1 [2]
  human TRPV1 H^+ (max % remain): 66%
Rats [3]
  inhibition in vivo at 0.1 µmol/kg: 60%

## CN1C(=O)CCc2ccc(NC(=O)N[C@@H]3CCOc4cc(C(F)(F)F)ccc43)cc21 [Example 37, 1-(1-methyl-2-oxo-1,2,3,4-tetrahydroquinolin-7-yl)-3-[(4R)-7-(trifluoromethyl)-3,4-dihydro-2H-chromen-4-yl]urea]
Human TRPV1 [1]
  IC50: 0.05 µM
Human TRPV1 [2]
  human TRPV1 H^+ (max % remain): 60%
Rats [3]
  inhibition in vivo at 0.1 µmol/kg: 78%
Rats [4]
  inhibition in vivo at 13 mg/kg: 43%

## Cn1c(=O)ccc2c(NC(=O)N[C@@H]3CC(CF)(CF)Oc4cc(F)ccc43)cccc21 [Example 27, 1-[(4R)-7-fluoro-2,2-bis(fluoromethyl)-3,4-dihydro-2H-chromen-4-yl]-3-(1-methyl-2-oxo-1,2-dihydroquinolin-5-yl)urea]
Human TRPV1 [1]
  IC50: 0.021 µM
Human TRPV1 [2]
  human TRPV1 H^+ (max % remain): 42%
Rats [3]
  inhibition in vivo at 0.1 µmol/kg: 33%

## C[C@]1(CF)C[C@@H](NC(=O)Nc2ccc3c(c2)NC(=O)CC3)c2ccc(Cl)cc2O1 [Example 241, 1-[(2R,4R)-7-chloro-2-(fluoromethyl)-2-methyl-3,4-dihydro-2H-chromen-4-yl]-3-(2-oxo-1,2,3,4-tetrahydroquinolin-7-yl)urea]
Human TRPV1 [1]
  IC50: 0.13 µM
Human TRPV1 [2]
  human TRPV1 H^+ (max % remain): 54%
Rats [3]
  inhibition in vivo at 0.1 µmol/kg: 53%

## Cn1c(=O)ccc2c(NC(=O)N[C@@H]3CC(C)(C)Oc4ccc(F)cc43)cccc21 [Example 24, 1-[(4R)-6-fluoro-2,2-dimethyl-3,4-dihydro-2H-chromen-4-yl]-3-(1-methyl-2-oxo-1,2-dihydroquinolin-5-yl)urea]
Human TRPV1 [1]
  IC50: 0.021 µM
Human TRPV1 [2]
  human TRPV1 H^+ (max % remain): 60%
Rats [3]
  inhibition in vivo at 0.1 µmol/kg: 58%

## CC1(C)C[C@@H](NC(=O)Nc2ccc3c(c2)NC(=O)CC3)c2ccc(F)cc2O1 [Example 221, 1-[(4R)-7-fluoro-2,2-dimethyl-3,4-dihydro-2H-chromen-4-yl]-3-(2-oxo-1,2,3,4-tetrahydroquinolin-7-yl)urea]
Human TRPV1 [1]
  IC50: 1.6 µM
Human TRPV1 [2]
  human TRPV1 H^+ (max % remain): 39%
Rats [3]
  inhibition in vivo at 0.1 µmol/kg: 53%

## CN1Cc2ccc(NC(=O)N[C@@H]3C[C@](C)(C(F)(F)F)Oc4ccccc43)cc2NC1=O [Example 18, 1-(3-methyl-2-oxo-1,2,3,4-tetrahydroquinazolin-7-yl)-3-[(2R,4R)-2-methyl-2-(trifluoromethyl)-3,4-dihydro-2H-chromen-4-yl]urea]
Human TRPV1 [1]
  IC50: 0.048 µM
Human TRPV1 [2]
  human TRPV1 H^+ (max % remain): 51%
Rats [3]
  inhibition in vivo at 0.1 µmol/kg: 64%
Rats [4]
  inhibition in vivo at 13 mg/kg: 62%

## CC1(C)C[C@@H](NC(=O)Nc2ccc3c(c2)NC(=O)CO3)c2ccc(F)cc2O1 [Example 38, 1-[(4R)-7-fluoro-2,2-dimethyl-3,4-dihydro-2H-chromen-4-yl]-3-(3-oxo-3,4-dihydro-2H-1,4-benzoxazin-6-yl)urea]
Human TRPV1 [1]
  IC50: 0.056 µM
Human TRPV1 [2]
  human TRPV1 H^+ (max % remain): 92%
Rats [3]
  inhibition in vivo at 0.1 µmol/kg: 69%
Rats [4]
  inhibition in vivo at 10 mg/kg: 63%

Source: US8969325B2, “TRPV1 antagonists” (AbbVie Inc., priority 2011, dated 2015)
